“Also recorded” adds a separate entry of the source.
Legend:
CD33 on HL-60 cells = target: T1, CD33 on HL-60 cells (Homo sapiens, UniProt P20138); assay: Antibody and conjugate binding to HL-60 cells by flow cytometry
T1 construct: endogenous in cells; host or cells: HL-60 human leukemic cell line (whole cells; plasma membranes prepared from HL-60)
Procedure: HL-60 cells were incubated with various concentrations of either My9-6 antibody or My9-6-DM1. The cells were then washed and incubated with a secondary FITC-labeled anti-murine IgG antibody. Following an additional wash, cells were fixed with 2% formaldehyde and cell-associated fluorescence was quantified using a BD FACScan flow cytometer.

Namalwa cells = assay: In vitro clonogenic cytotoxicity assay, CD33-negative cells; format: cell-based
Procedure: (§1) The cytotoxicity of My9-6-DM1 was measured using the CD33-expressing THP-1 cell and the CD33-negative cell line Namalwa. Cells were plated in 96-well plates in media containing the conjugate and incubated at 37° C. until colonies had formed (2-3 weeks). Colonies were then scored, and the surviving fractions determined using Poisson distribution in the calculations.
(§2) The cytotoxicity of My9-6-DM1 toward CD33 expressing cells (THP-1) compared to a CD33-negative cell line (Namalwa) was tested using a clonogenic assay, where cell killing activity is determined by quantifying the number of colonies that can grow following treatment.

large HL-60 tumors = assay: Large HL-60 tumor xenograft model in SCID mice; format: in vivo
Procedure: (§3) Subcutaneous tumor model—HL-60 human promyelocytic leukemia cells (5×10^6 cells in 0.1 mL) were subcutaneously inoculated into the right flank of female SCID mice. Mice were treated by intravenous injection into a lateral tail vein starting when tumors reached 100 mm^3 in size (400 mm^3 in large tumor model). Tumor size and mouse body weight were measured twice per week. Survival model—HL-60 cells (5×10^6 cells in 0.1 mL) were intravenously injected into the lateral tail vein of female SCID mice. Eleven days after tumor cell injection treatment was started. Mice were checked every day for moribund, tumor mass, or death. Body weight was measured twice per week.
Tumors were allowed to grow to a tumor volume of >400 mm^3 prior to the initiation of treatment. In addition, a comparison of the activity of My9-6-DM1 with standard chemotherapeutic drugs was conducted. […]

THP-1 cells = assay: In vitro clonogenic cytotoxicity assay, CD33-expressing cells; format: cell-based, human; details: THP-1, clonogenic assay
Procedure: as §1, §2

[1] = tested on: human THP-1 tumor xenografts; assay: Subcutaneous THP-1 tumor xenograft model in mice; format: in vivo; details: data not shown
[2] = tested on: HL-60 cells injected intravenously; assay: HL-60 cell mouse survival model; format: in vivo, SCID mice; details: treatment starting 11 days after cell injection
Procedure: FIGS. 24A & B show anti-tumor efficacy of My9-6-DM1 compared with Gentuzumab ozogamicin and standard chemotherapy in an HL-60 survival model. HL-60 cells were intravenously injected into SCID mice. Indicated treatments were started 11 days following injection of cells. Treatments were i.v. daily ×5 except for Gentuzumab ozogamicin (Q4D×3).
as §3
While the efficacy of My9-6-DM1 in the tumor xenograft model is striking, it is also of interest to look at the activity of the conjugate in a mouse survival model where HL-60 cells are injected directly into a mouse tail vein. In this model, control mice die between 30 and 50 days after cell injection. […] However, even in this model, standard chemotherapy provided no significant survival enhancement (FIG. 24B).

[3] = tested on: human HL-60 tumor cell xenografts; assay: Subcutaneous HL-60 tumor xenograft model in SCID mice; format: in vivo
Procedure: as §3
The efficacy of My9-6-DM1 in vivo was determined using SCID mice bearing human HL-60 tumor cell xenografts. HL-60 cells were injected subcutaneously and tumors were allowed to grow to an average size of 100 mm^3. Dosage is expressed as mg antibody in the conjugate, which corresponds to a DM1 dose of approximately 15 μg DM1 per mg of antibody. Tumor volume was measured as an indication of treatment efficacy and mouse body weight was monitored to indicate toxicity due to treatment.

[4] = tested on: leukemia cells (HL-60 cell cultures, HL-60 tumor xenografts in mice, marrow samples from AML patients); details: cited from earlier work
CD33 [5] = target: T2, CD33 (Homo sapiens, UniProt P20138); details: 9 mg/m^2 i.v. over 4 hours, repeated after 14 days; cited from earlier work
T2 construct: Gemtuzumab ozogamicin was evaluated in phase I and II clinical studies; host or cells: patients (AML)
T2 sequence (P20138 18-364): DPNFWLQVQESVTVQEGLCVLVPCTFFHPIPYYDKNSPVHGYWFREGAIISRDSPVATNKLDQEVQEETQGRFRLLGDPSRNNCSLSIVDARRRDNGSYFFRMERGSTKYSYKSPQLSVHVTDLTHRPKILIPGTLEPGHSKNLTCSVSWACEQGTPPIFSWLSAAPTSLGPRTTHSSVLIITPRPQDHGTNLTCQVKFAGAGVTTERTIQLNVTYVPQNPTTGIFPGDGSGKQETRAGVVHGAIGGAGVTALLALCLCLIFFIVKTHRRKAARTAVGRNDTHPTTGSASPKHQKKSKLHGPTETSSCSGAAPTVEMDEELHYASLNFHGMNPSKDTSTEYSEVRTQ

[6] = nude mice; cited from earlier work
CD33 [7] = target: T2, CD33; details: Phase I; cited from earlier work
[8] = in vivo; cited from earlier work
[9] = tumor volume >400 mm^3 at start of treatment
[10] = 20 mg conjugated antibody/kg/day i.v. ×5 days
[11] = second treatment identical to the first
[12] = 100 μg/kg, every 4 days for 3 doses

T1 sequence (P20138 18-364): as above

With “My9-6-DM1: murine My9-6 antibody linked via SPP disulfide linker to the maytansinoid DM1” as the substance, how does the “CD33 binding of conjugate compared with unmodified antibody” value (CD33 on HL-60 cells) read?
The value was “maintained the specificity and binding affinity of the unmodified antibody; also recorded: comparable to the unmodified antibody”.

What about the “toxicity toward CD33-negative cells” value (Namalwa cells) of the same substance?
The value was “No significant toxicity”.

And the “response of relapsed tumors to second treatment” value (large HL-60 tumors; second treatment of My9-6-DM1)?
The value was “sensitive to a second treatment”.

And the “mice with relapsed tumors” value (large HL-60 tumors; [9])?
The value was 2 of 6.

What about the tumor response (large HL-60 tumors; [9]) of the same substance?
The tumor response was “complete regression of large tumors”.

And the “cytotoxicity toward CD33-positive tumor cells” value (THP-1 cells)?
Its value is “potent antigen-specific cytotoxicity; also recorded: potent cell killing activity”.

What about the “outcome of mice bearing THP-1 xenografts” value [1] of the same substance?
The value was “long-term cures”.

What about the effect on survival [2] of the same substance?
The effect on survival was “dramatic increase in survival”.

And the “mice alive at 70 days” value ([2]; i.v. daily ×5)?
Its value is 7 of 8.

What about the “mice showing complete cures” value ([3]; 13 mg/kg i.v. once a day for 5 days) of the same substance?
Its value is 2 of 5.

And the tumor growth delay ([3]; 13 mg/kg i.v. once a day for 5 days, the other 3 mice)?
The tumor growth delay was “approximately 20 days”.

What about the toxicity [3, 10] of the same substance?
The toxicity was “no toxicity”.

What about the tumor response [3, 10] of the same substance?
The tumor response was “complete eradication of the tumors”.

And the tumor response ([3]; 23 mg antibody/kg (350 μg DM1/kg) daily for 5 days)?
Its tumor response is “complete regression of the tumors”.

And the “mouse body weight decrease” value ([3]; 23 mg antibody/kg daily for 5 days)?
Its value is 12%.

And the “mice with regrowth of tumors” value ([3]; 23 mg antibody/kg daily for 5 days, starting at day 70)?
The value was “two of the six”.

What about the “maximum body weight loss” value ([3]; 19 and 26 mg/kg i.v. once a day for 5 days) of the same substance?
Its value is “less than 10%”.

And the tumor response ([3]; 19 and 26 mg/kg i.v. once a day for 5 days, tumors 100 mm^3)?
The tumor response was “complete regression of the tumors”.

What about the “outcome of mice bearing HL-60 xenografts” value ([3]; i.v. once a day for 5 days) of the same substance?
Its value is “long-term cures”.

What about the “toxicity at curative doses” value ([3]; i.v. once a day for 5 days) of the same substance?
The value was “little toxicity”.

And the “response of relapsing tumors to second treatment” value [3, 11]?
The value was “complete regression”.

What about the “toxicity of second treatment” value [3, 11] of the same substance?
The value was “no adverse toxicity”.

For “Gemtuzumab ozogamicin: humanized anti-CD33 antibody conjugated to calicheamicin [reference compound]”, which “killing of leukemia cells” value [4] is on record?
The value was “specific killing of leukemia cells”.

What about the response rate (CD33 [5]) of the same substance?
The response rate was 30%.

And the “published MTD” value [6]?
The value was 0.3 mg/kg.

What about the major toxicity observed (CD33 [7]) of the same substance?
The major toxicity observed was “myelosuppression”.

What about the “toxicity in post-marketing reports” value [8] of the same substance?
The value was “venoocclusive disease (VOD)”.

And the effect on survival [2]?
Its effect on survival is “modest increase in survival”.

What about the tumor growth delay [3, 12] of the same substance?
The tumor growth delay was “about 25 days”.

And the tumor response [3, 12]?
Its tumor response is “modest tumor regression”.

What about the “toxicity in SCID mice” value ([3]; 0.3 mg/kg, preliminary experiment, data not shown) of the same substance?
Its value is “too toxic”.

What about the toxicity ([3]; 100 and 200 μg/kg, every 4 days for 3 doses) of the same substance?
Its toxicity is “Significant toxicity”.

And the maximum tolerated dose ([3]; SCID mice, every 4 days for 3 doses)?
Its maximum tolerated dose is 0.1 mg/kg.

Source: patent US10000566B2, “Anti-CD33 antibodies and methods for treatment of acute myeloid leukemia using the same” (IMMUNOGEN INC., priority 2002, dated 2018)
